Results on one molecule are retold here after PMC3714282, “Pharmacometabolomics of Response to Sertraline and to Placebo in Major Depressive Disorder – Possible Role for Methoxyindole Pathway” (PLoS ONE, 2013).

For this test, the system named is 5-Methoxytryptamine (5-MTPM). Briefly: GCTOF-MS measurement of serum 5-Methoxytryptamine (5-MTPM): change from baseline at week 1 and week 4. In kind it is in vivo, human. The following applies: for Change in 5-MTPM levels / Change 5-MTPM: serum; for Change in 5-MTPM levels: four weeks; for Change 5-MTPM: log-transformed concentration. As for the experimental part:
Samples were analyzed using a liquid chromatography electrochemical array (LCECA) platform that has been extensively validated and used in our prior studies in neurodegenerative and psychiatric disorders [30]–[34]. The method includes multiple compounds from the tyrosine, tryptophan, sulfur amino acids and purine pathways, and markers of oxidative stress and protection (for the list of metabolites and abbreviations see Table 1). Levels of 5-Methoxytryptamine (5-MTPM) were measured using a gas chromatography time-of-flight-mass spectrometry (GCTOF-MS) platform. Samples were prepared for analysis as previously described. During the sample preparation, pools were created from equal volumes of subaliquots of all samples. Concentrations of metabolites in the individual samples were expressed as a percentage of the concentration of those metabolites in the averaged pool.
Data preprocessing: We first removed the metabolites that have more than 40% missing values. […] Principal components analysis (PCA; SIMCA-P+12.0) was used to identify outliers. The analysis was performed for each time point. […] Subjects with ≥3 standard deviations away from the center of data cloud within two principal components (PC's) scores scatter plot were considered outliers and were removed from further analysis.
These analyses were conducted separately for the sertraline and placebo groups. Between groups t-tests were used to compare baseline to one week and baseline to four week change scores between the sertraline and placebo groups.
Signatures of response to sertraline and placebo were identified by using paired t-tests to compare week 4 metabolite levels to baseline metabolite levels in the responders and non-responders to therapy. […] These analyses were also performed to evaluate changes in ratios of individual metabolites within (e.g., 5-HT/5-HTP) and between branches of tryptophan pathway (e.g., KYN/MEL).

Consider `CN[C@H]1CC[C@@H](c2ccc(Cl)c(Cl)c2)c2ccccc21` [Sertraline, sertraline], for which the “Change of 5-MTPM (average change of log-transformed concentration)” value is listed as -0.11 (after four week of treatment, non-responders); -0.42 (after four week of treatment, responders); -0.052 (after one week of treatment, non-responders). In addition, the “Change in 5-MTPM levels” value is given as “significant decrease” (good responders to sertraline) and “not significantly changed” (non-responders to sertraline). For the same molecule, the “Change 5-MTPM” value reads like this: (after four weeks, sertraline group) −0.29; (after one week, responders to sertraline) -0.21.
